Source: patent US9422289B2, “Use of pteridine derivatives for the treatment of increased intracranial pressure, secondary ischemia, and disorders associated with an increased level of cytotoxic reactive oxygen species” (VASOPHARM GMBH, priority 2003, dated 2016)

Columns and labels:
D1 (h) = D1 (h) (Homo sapiens, UniProt P21728); type: binding; conditions: 10 µM
5-HT2B (h) = target: T1, 5-HT2B (h) (Homo sapiens, UniProt P41595); type: binding; conditions: 10 µM
T1 construct: Cerep (assay catalogue, edition 2002) 808-2bh

EGF (h) = EGF (h) (Homo sapiens, UniProt P00533); assay: Radioligand binding, Cerep […]; conditions: 10 µM
PDGF = assay: Radioligand binding, Cerep 881; conditions: 10 µM
H1 (central) = H1 (central) (Cavia porcellus, UniProt P31389); type: binding; conditions: 10 µM
[1] = target: T2, NOS constitutive (h) (endothelial) (Homo sapiens, UniProt P29474); type: biochemical; conditions: 10 µM
T2 construct: Cerep (assay catalogue, edition 2002) 766-c

Vitamin D3 (h) = target: T3, Vitamin D3 (h) (Homo sapiens, UniProt P11473); type: binding; conditions: 10 µM
T3 construct: Cerep (assay catalogue, edition 2002) 848-h

5-HT1B = 5-HT1B (Rattus norvegicus, UniProt P28564); type: binding; conditions: 10 µM
K^+V channel = assay: Radioligand binding, Cerep 863-2; conditions: 10 µM
[2] = tested on: Ca^2+ channel (L, verapamil site); assay: Radioligand binding, Cerep 861-L3; conditions: 10 µM
[3] = tested on: Cell proliferation (h) (EGF-stimulated A-431); assay: cells; type: cell-based, human; conditions: 10 µM
NE uptake = NE uptake (Rattus norvegicus, UniProt Q63380); type: cell-based; conditions: 10 µM
Sequence of NE uptake (Q63380 entry or part of it): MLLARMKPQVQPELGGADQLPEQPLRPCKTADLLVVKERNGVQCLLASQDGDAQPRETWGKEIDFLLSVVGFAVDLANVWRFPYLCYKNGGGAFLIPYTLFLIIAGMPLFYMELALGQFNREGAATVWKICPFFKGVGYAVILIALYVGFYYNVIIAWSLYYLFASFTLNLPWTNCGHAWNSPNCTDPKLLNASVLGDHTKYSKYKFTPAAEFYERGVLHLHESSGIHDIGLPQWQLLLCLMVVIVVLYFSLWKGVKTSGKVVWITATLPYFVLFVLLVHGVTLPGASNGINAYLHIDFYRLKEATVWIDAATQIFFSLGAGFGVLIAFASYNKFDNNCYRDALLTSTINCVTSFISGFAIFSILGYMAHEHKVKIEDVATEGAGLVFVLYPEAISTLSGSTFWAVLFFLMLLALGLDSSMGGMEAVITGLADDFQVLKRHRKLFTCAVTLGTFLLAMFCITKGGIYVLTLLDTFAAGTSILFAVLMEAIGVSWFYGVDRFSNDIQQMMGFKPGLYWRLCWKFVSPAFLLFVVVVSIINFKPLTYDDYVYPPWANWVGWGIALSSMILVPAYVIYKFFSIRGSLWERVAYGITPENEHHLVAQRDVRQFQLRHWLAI

Kainate = assay: Radioligand binding, Cerep 895-2; conditions: 10 µM
Acetylcholinesterase (h) = Acetylcholinesterase (h) (Homo sapiens, UniProt P22303); type: biochemical; conditions: 10 µM
[4] = tested on: β-adrenoceptor -G protein coupling; type: cell-based; conditions: 10 µM
[5] = target: T4, NOS inducible (whole cells/spectrophoto.) (Mus musculus, UniProt P29477); assay: Cell biology assay, Cerep 766-i1; type: cell-based; conditions: 10 µM
T4 construct: Cerep (assay catalogue, edition 2002) 766-i1

[6] = tested on: Na^+ channel (h) (stimulated); assay: Cell biology assay, Cerep 739-1; type: cell-based, human; conditions: 10 µM
ETB (h) = ETB (h) (Homo sapiens, UniProt P24530); assay: Radioligand binding, Cerep 825-2h; conditions: 10 µM
β1 (h) = β1 (h) (Homo sapiens, UniProt P08588); type: binding; conditions: 10 µM
D2 (h) = D2 (h) (Homo sapiens, UniProt P14416); type: binding; conditions: 10 µM
M2 (h) = M2 (h) (Homo sapiens, UniProt P08172); type: binding; conditions: 10 µM
Sequence of M2 (h) (P08172 whole entry): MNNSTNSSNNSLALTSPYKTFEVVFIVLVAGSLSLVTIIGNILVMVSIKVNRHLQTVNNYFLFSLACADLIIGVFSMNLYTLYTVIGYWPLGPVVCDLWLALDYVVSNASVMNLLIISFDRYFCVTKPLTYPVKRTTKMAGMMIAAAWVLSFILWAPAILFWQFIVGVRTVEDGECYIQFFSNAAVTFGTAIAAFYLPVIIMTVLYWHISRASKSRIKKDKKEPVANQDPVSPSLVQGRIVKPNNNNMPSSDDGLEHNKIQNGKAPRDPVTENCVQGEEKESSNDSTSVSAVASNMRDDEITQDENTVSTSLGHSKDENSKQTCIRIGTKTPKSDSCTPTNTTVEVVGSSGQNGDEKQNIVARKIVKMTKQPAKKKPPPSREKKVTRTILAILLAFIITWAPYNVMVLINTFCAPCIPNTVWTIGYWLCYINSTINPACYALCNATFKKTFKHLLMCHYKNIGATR

ATPase (Na^+/K^+) = assay: Cell biology assay, Cerep 760; type: biochemical; conditions: 10 µM
IP3 = assay: Radioligand binding, Cerep 861-5; conditions: 10 µM
SK^+Ca channel = assay: Radioligand binding, Cerep 863-3; conditions: 10 µM
[7] = tested on: isolated rat basilar arteries (BA); assay: Contractile action in isolated rat basilar arteries
[8] = tested on: Cell proliferation (PDGF-stimulated Balb/c 3T3); assay: Cell biology assay, Cerep 791-3; type: cell-based; conditions: 10 µM
NMDA = assay: Radioligand binding, Cerep 895-3; conditions: 10 µM
AT1 (h) = AT1 (h) (Homo sapiens, UniProt P30556); assay: Radioligand binding, Cerep 821-1h; conditions: 10 µM
Sequence of AT1 (h) (P30556 whole entry): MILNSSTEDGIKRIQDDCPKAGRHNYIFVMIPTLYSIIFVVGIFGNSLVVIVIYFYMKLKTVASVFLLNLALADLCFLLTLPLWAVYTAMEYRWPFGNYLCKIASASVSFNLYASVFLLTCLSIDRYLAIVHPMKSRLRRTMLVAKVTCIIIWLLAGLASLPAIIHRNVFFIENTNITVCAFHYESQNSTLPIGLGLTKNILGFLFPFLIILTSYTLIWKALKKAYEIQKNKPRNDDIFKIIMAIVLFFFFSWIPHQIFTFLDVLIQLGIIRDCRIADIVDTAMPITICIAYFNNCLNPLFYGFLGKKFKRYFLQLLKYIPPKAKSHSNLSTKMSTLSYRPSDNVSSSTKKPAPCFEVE

5-HT1D = assay: Radioligand binding, Cerep 808-1d; conditions: 10 µM
[9] = tested on: Protein kinase A (stimulated); assay: Cell biology assay, Cerep 706-2; type: cell-based; conditions: 10 µM
AT2 (h) = AT2 (h) (Homo sapiens, UniProt P50052); type: binding; conditions: 10 µM
Sequence of AT2 (h) (P50052 whole entry): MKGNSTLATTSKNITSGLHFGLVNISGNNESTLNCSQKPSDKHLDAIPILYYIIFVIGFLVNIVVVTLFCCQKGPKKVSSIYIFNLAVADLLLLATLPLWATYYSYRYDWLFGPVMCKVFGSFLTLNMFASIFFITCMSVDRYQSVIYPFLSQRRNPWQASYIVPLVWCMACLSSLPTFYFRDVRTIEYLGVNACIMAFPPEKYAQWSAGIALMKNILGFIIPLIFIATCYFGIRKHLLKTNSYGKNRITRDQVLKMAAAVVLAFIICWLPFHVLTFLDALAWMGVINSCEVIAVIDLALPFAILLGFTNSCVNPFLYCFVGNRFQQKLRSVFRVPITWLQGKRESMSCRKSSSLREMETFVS

GABA (non-selective) = type: binding; conditions: 10 µM
M1 (h) = M1 (h) (Homo sapiens, UniProt P11229); type: binding; conditions: 10 µM
Sequence of M1 (h) (P11229 whole entry): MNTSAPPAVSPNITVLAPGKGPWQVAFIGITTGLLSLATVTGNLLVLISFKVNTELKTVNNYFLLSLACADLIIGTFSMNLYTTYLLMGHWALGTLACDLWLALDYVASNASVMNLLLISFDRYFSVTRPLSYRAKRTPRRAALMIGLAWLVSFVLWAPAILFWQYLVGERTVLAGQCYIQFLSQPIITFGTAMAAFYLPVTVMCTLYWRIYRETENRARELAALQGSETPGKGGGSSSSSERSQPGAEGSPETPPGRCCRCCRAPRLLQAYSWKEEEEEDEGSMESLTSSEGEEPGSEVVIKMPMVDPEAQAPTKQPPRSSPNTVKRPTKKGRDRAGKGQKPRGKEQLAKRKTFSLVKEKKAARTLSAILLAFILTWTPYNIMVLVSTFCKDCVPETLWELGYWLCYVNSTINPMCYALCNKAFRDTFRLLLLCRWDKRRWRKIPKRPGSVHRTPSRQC

[10] = tested on: Ca^2+ channel (L, DHP site); type: binding; conditions: 10 µM
DA uptake = DA uptake (Rattus norvegicus, UniProt P23977); type: cell-based; conditions: 10 µM
PAF = PAF (Oryctolagus cuniculus, UniProt G1TEI7); assay: Radioligand binding, Cerep 830; conditions: 10 µM
Sequence of PAF (G1TEI7 1-342): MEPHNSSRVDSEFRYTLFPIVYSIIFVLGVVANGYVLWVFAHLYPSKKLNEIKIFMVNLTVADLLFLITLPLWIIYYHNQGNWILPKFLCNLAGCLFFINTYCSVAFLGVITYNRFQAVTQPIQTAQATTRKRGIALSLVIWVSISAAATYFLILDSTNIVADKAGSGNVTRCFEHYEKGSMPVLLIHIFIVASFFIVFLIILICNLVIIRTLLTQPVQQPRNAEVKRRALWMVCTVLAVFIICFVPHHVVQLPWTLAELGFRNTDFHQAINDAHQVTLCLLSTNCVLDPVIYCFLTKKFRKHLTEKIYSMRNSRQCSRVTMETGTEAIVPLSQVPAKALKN

M3 (h) = M3 (h) (Homo sapiens, UniProt P20309); assay: Radioligand binding, Cerep 806-3h; conditions: 10 µM
Sequence of M3 (h) (P20309 whole entry): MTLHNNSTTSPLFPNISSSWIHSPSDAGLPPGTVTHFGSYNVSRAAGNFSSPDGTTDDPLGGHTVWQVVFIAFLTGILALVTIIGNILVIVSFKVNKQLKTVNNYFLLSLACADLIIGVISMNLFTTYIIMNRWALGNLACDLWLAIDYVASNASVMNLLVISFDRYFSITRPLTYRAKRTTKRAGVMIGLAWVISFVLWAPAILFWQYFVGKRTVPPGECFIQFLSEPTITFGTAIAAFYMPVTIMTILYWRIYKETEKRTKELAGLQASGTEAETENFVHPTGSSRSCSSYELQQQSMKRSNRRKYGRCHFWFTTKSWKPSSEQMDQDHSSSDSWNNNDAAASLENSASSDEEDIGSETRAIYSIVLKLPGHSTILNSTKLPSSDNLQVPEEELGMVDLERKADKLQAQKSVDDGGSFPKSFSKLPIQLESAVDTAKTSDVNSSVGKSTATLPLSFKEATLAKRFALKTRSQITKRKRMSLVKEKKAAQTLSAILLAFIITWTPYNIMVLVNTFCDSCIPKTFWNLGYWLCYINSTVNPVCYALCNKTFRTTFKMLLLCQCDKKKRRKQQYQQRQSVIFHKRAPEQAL

[11] = tested on: β-adrenoceptor - G protein coupling; type: cell-based
[12] = tested on: isolated rat middle cerebral arteries (MCA); assay: Contractile action in isolated rat middle cerebral arteries
GABAA = assay: Radioligand binding, Cerep 804-1; conditions: 10 µM
ETA (h) = ETA (h) (Homo sapiens, UniProt P25101); type: binding; conditions: 10 µM
Sequence of ETA (h) (P25101 21-427): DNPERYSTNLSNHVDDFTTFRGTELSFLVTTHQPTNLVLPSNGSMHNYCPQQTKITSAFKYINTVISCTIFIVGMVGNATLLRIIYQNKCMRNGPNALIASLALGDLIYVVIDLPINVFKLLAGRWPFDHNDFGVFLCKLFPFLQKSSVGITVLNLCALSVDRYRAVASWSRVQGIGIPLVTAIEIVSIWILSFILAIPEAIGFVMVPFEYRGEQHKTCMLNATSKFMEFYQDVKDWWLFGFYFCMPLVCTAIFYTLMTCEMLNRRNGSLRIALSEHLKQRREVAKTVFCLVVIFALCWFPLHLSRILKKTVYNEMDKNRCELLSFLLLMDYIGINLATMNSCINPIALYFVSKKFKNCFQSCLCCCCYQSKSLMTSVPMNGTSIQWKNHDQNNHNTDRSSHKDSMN

Ca^2+-ATPase (pump) = assay: Cell biology assay, Cerep 735; type: cell-based; conditions: 10 µM
Na^+/K^+ ATPase (pump) = assay: Cell biology assay, Cerep 734; type: cell-based; conditions: 10 µM
Phosphodiesterase V (h) = target: T5, Phosphodiesterase V (h) (Homo sapiens, UniProt O76074); type: biochemical; conditions: 10 µM
T5 construct: Cerep (assay catalogue, edition 2002) 752-e

GABAB = GABAB (Rattus norvegicus, UniProt Q9Z0U4); type: binding; conditions: 10 µM
5-HT uptake = 5-HT uptake (Rattus norvegicus, UniProt P31652); type: cell-based; conditions: 10 µM
[13] = tested on: L-type Ca^2+ channel (stimulated); assay: Cell biology assay, Cerep 740-1; type: cell-based; conditions: 10 µM
H2 = H2 (Cavia porcellus, UniProt P47747); type: binding; conditions: 10 µM
Sequence of H2 (P47747 whole entry): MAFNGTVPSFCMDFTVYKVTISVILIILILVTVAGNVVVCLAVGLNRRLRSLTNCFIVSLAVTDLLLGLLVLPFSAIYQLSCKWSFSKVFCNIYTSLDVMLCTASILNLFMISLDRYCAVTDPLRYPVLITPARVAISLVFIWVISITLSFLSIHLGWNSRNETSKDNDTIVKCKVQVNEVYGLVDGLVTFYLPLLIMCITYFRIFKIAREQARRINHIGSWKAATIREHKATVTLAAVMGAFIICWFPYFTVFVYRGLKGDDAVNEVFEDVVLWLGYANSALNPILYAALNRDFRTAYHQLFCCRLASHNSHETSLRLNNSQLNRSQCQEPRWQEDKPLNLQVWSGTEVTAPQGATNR

α1 (non-selective) = assay: Radioligand binding, Cerep 802-1a; conditions: 10 µM
Estrogen (ER) = assay: Radioligand binding, Cerep 813; conditions: 10 µM
β2 (h) = β2 (h) (Homo sapiens, UniProt P07550); type: binding; conditions: 10 µM
K^+ATP channel = K^+ATP channel (Rattus norvegicus, UniProt Q09429); assay: Radioligand binding, Cerep 863-1; conditions: 10 µM
α2 (non-selective) = assay: Radioligand binding, Cerep 802-1b; conditions: 10 µM
[14] = tested on: Ca^2+ channel (L, diltiazem site); type: binding; conditions: 10 µM
[15] = target: Phosphodiesterase III (h) (Homo sapiens, UniProt Q14432); assay: Cell biology assay, Cerep 752-ch; type: biochemical; conditions: 10 µM
Sequence of Phosphodiesterase III (h) (Q14432 669-1141 limits assumed): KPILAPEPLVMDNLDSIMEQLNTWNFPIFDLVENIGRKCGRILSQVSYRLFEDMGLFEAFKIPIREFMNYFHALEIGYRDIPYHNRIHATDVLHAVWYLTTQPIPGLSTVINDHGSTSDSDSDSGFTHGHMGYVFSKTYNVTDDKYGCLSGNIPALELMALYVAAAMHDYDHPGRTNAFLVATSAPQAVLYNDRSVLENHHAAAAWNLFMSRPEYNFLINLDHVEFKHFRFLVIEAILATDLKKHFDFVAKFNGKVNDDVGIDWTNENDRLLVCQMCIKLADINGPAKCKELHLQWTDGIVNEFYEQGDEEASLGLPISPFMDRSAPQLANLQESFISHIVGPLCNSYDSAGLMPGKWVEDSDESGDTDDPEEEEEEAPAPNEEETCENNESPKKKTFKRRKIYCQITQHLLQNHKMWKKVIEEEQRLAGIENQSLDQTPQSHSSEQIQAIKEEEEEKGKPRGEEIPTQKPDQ

AMPA = assay: Radioligand binding, Cerep 895-1; conditions: 10 µM
5-HT2A (h) = target: T6, 5-HT2A (h) (Homo sapiens, UniProt P28223); assay: Radioligand binding, Cerep 808-2h; conditions: 10 µM
T6 construct: Cerep (assay catalogue, edition 2002) 808-2h

Sequence of D1 (h) (P21728 whole entry): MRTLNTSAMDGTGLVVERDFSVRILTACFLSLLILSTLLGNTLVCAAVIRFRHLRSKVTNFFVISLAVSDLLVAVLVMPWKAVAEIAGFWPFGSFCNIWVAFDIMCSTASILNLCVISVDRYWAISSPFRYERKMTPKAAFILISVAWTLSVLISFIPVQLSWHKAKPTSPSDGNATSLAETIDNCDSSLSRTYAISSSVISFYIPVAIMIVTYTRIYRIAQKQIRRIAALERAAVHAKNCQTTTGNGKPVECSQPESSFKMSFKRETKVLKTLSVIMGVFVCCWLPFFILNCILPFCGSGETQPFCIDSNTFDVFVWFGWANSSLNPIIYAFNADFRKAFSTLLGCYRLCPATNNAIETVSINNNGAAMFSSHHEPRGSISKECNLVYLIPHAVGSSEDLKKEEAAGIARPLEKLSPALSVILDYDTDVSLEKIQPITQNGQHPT

Compound: CC(O)C(O)C1CNc2nc(N)nc(N)c2N1 [H4-aminobiopterin, 2,4-diamino-5,6,7,8-tetrahydro-6-(L-erythro-1,2-dihydroxypropyl)-pteridine]
- percent inhibition of control specific binding (D1 (h)): — (key: The symbol — indicates an inhibition of less than 10%.)
- percent inhibition of control specific binding (5-HT2B (h)): — (key: The symbol — indicates an inhibition of less than 10%.)
- percent inhibition of control specific binding (EGF (h)): 10%
- percent inhibition of control specific binding (PDGF): — (key: The symbol — indicates an inhibition of less than 10%.)
- percent inhibition of control specific binding (H1 (central)): — (key: The symbol — indicates an inhibition of less than 10%.)
- percent inhibition of control activity [1]: 76%
- percent inhibition of control specific binding (Vitamin D3 (h)): — (key: The symbol — indicates an inhibition of less than 10%.)
- percent inhibition of control specific binding (5-HT1B): — (key: The symbol — indicates an inhibition of less than 10%.)
- percent inhibition of control specific binding (K^+V channel): — (key: The symbol — indicates an inhibition of less than 10%.)
- percent inhibition of control specific binding [2]: — (key: The symbol — indicates an inhibition of less than 10%.)
- percent inhibition of control activity [3]: 23%
- percent inhibition of control activity (NE uptake): — (key: The symbol — indicates an inhibition of less than 10%.)
- percent inhibition of control specific binding (Kainate): — (key: The symbol — indicates an inhibition of less than 10%.)
- percent inhibition of control activity (Acetylcholinesterase (h)): — (key: The symbol — indicates an inhibition of less than 10%.)
- percent of inhibition of control activity [4]: 31%
- percent inhibition of control activity [5]: — (key: The symbol — indicates an inhibition of less than 10%.)
- percent inhibition of control activity [6]: 12%
- percent inhibition of control specific binding (ETB (h)): — (key: The symbol — indicates an inhibition of less than 10%.)
- percent inhibition of control specific binding (β1 (h)): — (key: The symbol — indicates an inhibition of less than 10%.)
- percent inhibition of control specific binding (D2 (h)): — (key: The symbol — indicates an inhibition of less than 10%.)
- percent inhibition of control specific binding (M2 (h)): — (key: The symbol — indicates an inhibition of less than 10%.)
- percent inhibition of control activity (ATPase (Na^+/K^+)): — (key: The symbol — indicates an inhibition of less than 10%.)
- percent inhibition of control specific binding (IP3): — (key: The symbol — indicates an inhibition of less than 10%.)
- percent inhibition of control specific binding (SK^+Ca channel): — (key: The symbol — indicates an inhibition of less than 10%.)
- contraction relative to contraction caused by 124 mM K^+-Krebs solution [7]: clear concentration dependent contraction
- percent inhibition of control activity [8]: — (key: The symbol — indicates an inhibition of less than 10%.)
- percent inhibition of control specific binding (NMDA): — (key: The symbol — indicates an inhibition of less than 10%.)
- percent inhibition of control specific binding (AT1 (h)): — (key: The symbol — indicates an inhibition of less than 10%.)
- percent inhibition of control specific binding (5-HT1D): — (key: The symbol — indicates an inhibition of less than 10%.)
- percent inhibition of control activity [9]: — (key: The symbol — indicates an inhibition of less than 10%.)
- percent inhibition of control specific binding (AT2 (h)): 16%
- percent inhibition of control specific binding (GABA (non-selective)): — (key: The symbol — indicates an inhibition of less than 10%.)
- percent inhibition of control specific binding (M1 (h)): — (key: The symbol — indicates an inhibition of less than 10%.)
- percent inhibition of control specific binding [10]: — (key: The symbol — indicates an inhibition of less than 10%.)
- percent inhibition of control activity (DA uptake): — (key: The symbol — indicates an inhibition of less than 10%.)
- percent inhibition of control specific binding (PAF): — (key: The symbol — indicates an inhibition of less than 10%.)
- percent inhibition of control specific binding (M3 (h)): 10%
- stimulation of control activity [11]: 11
- contraction relative to contraction caused by 124 mM K^+-Krebs solution [12]: clear concentration dependent contraction
- percent inhibition of control specific binding (GABAA): — (key: The symbol — indicates an inhibition of less than 10%.)
- percent inhibition of control specific binding (ETA (h)): — (key: The symbol — indicates an inhibition of less than 10%.)
- percent inhibition of control activity (Ca^2+-ATPase (pump)): — (key: The symbol — indicates an inhibition of less than 10%.)
- percent inhibition of control activity (Na^+/K^+ ATPase (pump)): — (key: The symbol — indicates an inhibition of less than 10%.)
- percent inhibition of control activity (Phosphodiesterase V (h)): — (key: The symbol — indicates an inhibition of less than 10%.)
- percent inhibition of control specific binding (GABAB): — (key: The symbol — indicates an inhibition of less than 10%.)
- percent inhibition of control activity (5-HT uptake): — (key: The symbol — indicates an inhibition of less than 10%.)
- percent inhibition of control activity [13]: — (key: The symbol — indicates an inhibition of less than 10%.)
- percent inhibition of control specific binding (H2): — (key: The symbol — indicates an inhibition of less than 10%.)
- percent inhibition of control specific binding (α1 (non-selective)): — (key: The symbol — indicates an inhibition of less than 10%.)
- percent inhibition of control specific binding (Estrogen (ER)): — (key: The symbol — indicates an inhibition of less than 10%.)
- percent inhibition of control specific binding (β2 (h)): — (key: The symbol — indicates an inhibition of less than 10%.)
- percent inhibition of control specific binding (K^+ATP channel): — (key: The symbol — indicates an inhibition of less than 10%.)
- percent inhibition of control specific binding (α2 (non-selective)): — (key: The symbol — indicates an inhibition of less than 10%.)
- percent inhibition of control specific binding [14]: — (key: The symbol — indicates an inhibition of less than 10%.)
- percent inhibition of control activity [15]: — (key: The symbol — indicates an inhibition of less than 10%.)
- percent inhibition of control specific binding (AMPA): — (key: The symbol — indicates an inhibition of less than 10%.)
- percent inhibition of control specific binding (5-HT2A (h)): — (key: The symbol — indicates an inhibition of less than 10%.)
